The source of these data is patent publication US11116781B2, “Composition, containing Loganin or a derivative thereof as an active ingredient for preventing, remedying, or treating female climacteric syndrome” (NINE B CO., LTD., priority 2016, dated 2021).

Common to all, as to format: in vivo
For experiment [1], the system named is ovariectomized ddY female mouse (OVX mouse). In words: Blood estradiol, progesterone and cortisol by ELISA in female climacteric (OVX) mouse model. The note with it: 10 mg/kg/day oral, 12 weeks; for decrease level of estradiol (17β-estradiol, E2) in the blood: vs. OVX negative control (FIG. 6a); for decrease level of progesterone in the blood: vs. OVX negative control (FIG. 6b). The method, then:
(§1) A 10-week-old ovariectomized ddY female mouse (OVX mouse) was used as a climacteric animal model to evaluate the in vivo efficacy of Loganin (ovariectomy after 8 weeks and 2 weeks of additional feeding for recovering conditions). Sham mouse group cut the abdomen open without ovariectomy (normal control group) was used as control group, and OVX mouse group in which physiological saline alone was administered to ovariectomized mice (negative control group) and SrCl2 mouse group in which a single compound, strontium chloride (SrCl2), was orally injected at a dose of 10 mg/kg/day (comparison group of […] compound administration) were used. 10-week-old Sham-operated and ovariectomized ddY female mice were purchased from Central Laboratory Animals Co. and transferred to a clean animal breeding area after a 1-week purifying period in the quarantine room of Experimental Animal Center in Ajou University. The weight of each mouse was measured and group separation was performed so that there was no statistically significant weight difference between the experimental groups. For the experiment, a test solution of Loganin was prepared as an aqueous solution and in order to bring in the laboratory animal center, a sterilization operation was carried out by irradiating with a gamma ray by a radiation irradiation professional company, Soyagreentec Co., Ltd. In the test group, Loganin was orally injected at a dose of 10 mg/kg/day for 12 weeks and blood estrogen level, estrogen receptor alpha expression level in uterus tissue, uterine size, body weight, and fat cell size of liver and abdominal adipose tissue were measured and analyzed.
An ordinary female climacteric symptom results in a significant reduction in female hormones, i.e. estrogen and progesterone. The amount of estradiol (17β-estradiol, E2) and progesterone which are estrogen in the blood was measured by ELISA after 12 weeks of administration of Loganin to female climacteric mouse model.

The test system is the same in experiment [2]. In words: Uterine contraction and degeneration (shape, size, thickness, weight) in climacteric mouse model. Particulars: 10 mg/kg/day oral, 12 weeks; for outward shape and size of the uterus: vs. OVX negative control (FIG. 8a); for thickness of the H & E-stained uterine section: vs. OVX negative control (FIG. 8b); for weight of the uterus: vs. OVX negative control (FIG. 8c). Here is the method: as §1
An ordinary female climacteric symptom results in uterine contraction and degeneration due to estrogen decrease. The shape, size, thickness and weight of the uterus were observed after 12 weeks of administration of Loganin to female climacteric mouse model followed by extirpating uterus. When compared to normal Sham mouse without ovariectomy, the uterus was small (FIG. 8a), the thickness of the section was thin (FIG. 8b) and the uterine weight was light (FIG. 8c) in ovariectomized OVX mouse.

In experiment [3] the test system is estrogen receptor alpha. In words: Estrogen receptor alpha mRNA and protein expression in uterus of climacteric mouse model. The note with it: OVX mouse, 10 mg/kg/day oral, 12 weeks; for decrease of the estrogen receptor alpha protein in uterus section: immunohistochemistry, vs. OVX negative control (FIG. 7b); for decrease of mRNA expression of the estrogen receptor alpha in uterus: vs. OVX negative control (FIG. 7a). Here is the method: as §1
An ordinary female climacteric symptom results in a remarkable reduction in estrogen receptors in uterine tissue cells due to estrogen decrease. The estrogen receptor is activated by estradiol (17β-estradiol, E2) and has two classes of estrogen receptor alpha and estrogen receptor beta. In the uterus, the estrogen receptor alpha plays a more important role than the estrogen receptor beta, and during climacterium, a marked reduction in the estrogen receptor alpha causes contraction and degeneration of the uterus. The mRNA expression level of the estrogen receptor alpha gene and the estrogen receptor alpha protein expression level by immunohistochemistry of section of the uterus were analyzed after 12 weeks of administration of Loganin to climacteric mouse model followed by extirpating uterus.

Experiment [4] deals with ovariectomized ddY female mouse (OVX mouse). In words: Body weight and blood insulin and leptin (ELISA) in climacteric mouse model. The note with it: 10 mg/kg/day oral, 12 weeks; for increase in insulin in the blood / increase in leptin in the blood: ELISA; for increase in insulin in the blood: vs. OVX negative control (FIG. 9b); for increase in leptin in the blood: vs. OVX negative control (FIG. 9c); for weight gain (body weight): vs. OVX negative control (FIG. 9a). Here is the method: as §1
An ordinary female climacteric symptom results in weight gain due to estrogen decrease. The changes in body weight of mice and the presence of insulin and leptin, the metabolic hormone proteins, were measured by ELISA after 12 weeks of administration of Loganin to female climacteric mouse model.

The test system is the same in experiment [5]. In words: Fat accumulation in liver and fat cell size in abdominal adipose tissue (H & E staining) in climacteric mouse model. The note with it: 10 mg/kg/day oral, 12 weeks; for fat accumulation in the liver: H & E staining (FIG. 10a); for increase in fat cell size in the abdominal adipose tissue: H & E staining (FIG. 10b). Here is the method: as §1
In general, when estrogen is reduced in female climacterium, new estrogen is produced from adipocytes to offset the estrogen deficiency. In this process, more fat cells are produced and can cause abdominal obesity. In other words, fat accumulation in the liver and fat cell size increase in abdominal adipose tissue are caused by the increase of insulin and leptin, which are hormone proteins related to lipid metabolism. Liver and abdominal adipose tissues of mice were extirpated and H & E stained after 12 weeks of administration of Loganin to female climacteric mouse model.

Take `COC(=O)C1=CO[C@@H](O[C@@H]2O[C@H](CO)[C@@H](O)[C@H](O)[C@H]2O)[C@@H]2[C@@H](C)[C@@H](O)C[C@H]12` [Loganin]: in experiment [1], the “decrease level of estradiol (17β-estradiol, E2) in the blood” value is “significantly inhibited” and the “decrease level of progesterone in the blood” value was “significantly inhibited”. Also, in experiment [2], the “outward shape and size of the uterus” value was “significantly inhibited”; the “thickness of the H & E-stained uterine section” value is listed as “significantly inhibited”; the “weight of the uterus” value is “significantly inhibited”. Also, in experiment [3], the “decrease of the estrogen receptor alpha protein in uterus section” value is recorded as “significantly inhibited” and the “decrease of mRNA expression of the estrogen receptor alpha in uterus” value was “significantly inhibited”. Also, in experiment [4], the “increase in insulin in the blood” value is “significantly inhibited”, the “increase in leptin in the blood” value was “significantly inhibited” and the “weight gain (body weight)” value is reported as “significantly inhibited”. Also, in experiment [5], the “fat accumulation in the liver” value was “remarkably inhibited” and the “increase in fat cell size in the abdominal adipose tissue” value was “remarkably inhibited”.

In the case of `[Cl-].[Cl-].[Sr+2]` [SrCl2, strontium chloride], in experiment [1], the “decrease level of estradiol (17β-estradiol, E2) in the blood” value is “no difference with OVX mouse” and the “decrease level of progesterone in the blood” value is on record as “no difference with OVX mouse”. In addition, in experiment [2], the “outward shape and size of the uterus” value is given as “no difference with OVX mouse”; the “thickness of the H & E-stained uterine section” value was “no difference with OVX mouse”; the “weight of the uterus” value was “no difference with OVX mouse”. In experiment [3], the “decrease of the estrogen receptor alpha protein in uterus section” value is “no difference with OVX mouse” and the “decrease of mRNA expression of the estrogen receptor alpha in uterus” value is recorded as “no difference with OVX mouse”. Also, in experiment [4], the “increase in insulin in the blood” value is listed as “no difference with OVX mouse”, the “increase in leptin in the blood” value is recorded as “no difference with OVX mouse” and the “weight gain (body weight)” value is on record as “no difference with OVX mouse”. Besides, in experiment [5], the “fat accumulation in the liver” value is reported as “no difference with OVX mouse” and the “increase in fat cell size in the abdominal adipose tissue” value is on record as “no difference with OVX mouse”.
